One assay addresses T1, PI3Kα (p110α/p85α) (Homo sapiens, UniProt P42336).
T1 construct: purchased BPS Bioscience (San Diego, Calif.) or Millipore (Billerica, Mass.)
The assay is described as follows: HTRF assay, potency against active PI3Kα. It counts as biochemical. As to conditions: HTRF; [ATP]=50 μM, [di-C8-PIP2]=10 μM; 30 min pre-incubation; read-out: PI3Kα Inhibition. The essentials:
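IC50 came from a variable-slope fit of % inhibition, calculated from the HTRF emission ratio relative to wells with and without enzyme. Reactions with the active enzyme complex ran 30-60 minutes at 25 °C after ATP addition before stop and detection reagents.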

Another assay deals with T2, PI3Kγ (p120γ) (Homo sapiens, UniProt P48736).
T2 construct: purchased BPS Bioscience (San Diego, Calif.) or Millipore (Billerica, Mass.)
In words: HTRF assay, potency against active PI3Kγ. It counts as biochemical. Conditions: [ATP]=50 μM, [di-C8-PIP2]=10 μM, 30 min pre-incubation, read-out: PI3Kγ Inhibition. An excerpt: Homogeneous Time Resolved Fluorescence (HTRF) Assay Protocol for Potency Assessment Against the Active Forms of PI3Kα, PI3Kβ, and PI3Kγ
The protocol below describes an end-point, competition-binding HTRF assay used to measure inherent potency of test compounds against active PI3Kα (p110α/p85α), PI3Kβ (p110β/p85α), and PI3Kγ (p120γ) enzymes. The mechanics of the assay platform are best described by the vendor (Millipore, Billerica, Mass.) on their website at the following URL: www.millipore.com/coa/tech1/74jt4z.
Briefly, Stop solution (Stop A, #33-007 and Stop B, #33-009; 3:1 ratio) and Detection Mix (from DMC, #33-015 with DMA, #33-011 and DMB, #33-013; 18:1:1 ratio) were prepared as recommended by the manufacturer about 2 hrs prior to use. Additionally, 1× reaction buffer (from 4× buffer stock# 33-003), 1.4× stocks of PI3Kα, PI3Kβ, and PI3Kγ enzymes from BPS Bioscience (San Diego, Calif.) or Millipore (Billerica, Mass.) with di-C8-PIP2 lipid substrate (#33-005), and a 4×ATP solution (#A7699 Sigma/Aldrich; St. Louis, Mo.) were prepared in 1× reaction buffer. 15 μL of PI3K enzymes and lipid substrate mix were pre-incubated in a Corning (#3573) 384-well, black, non-treated microtiter plate (Corning, N.Y.) for 30 min at 25° C. with a 0.5 μL volume of 50% DMSO and serially diluted compounds prepared in 50% DMSO. Lipid kinase reactions were started with the addition of 5 μL of ATP solution, mixed for 15 sec on a rotary plate shaker and incubated for 30-60 minutes at 25° C. Next, reactions were stopped with a 5 μL addition of Stop solution immediately followed by a 5 μL volume of Detection Mix. Stopped reactions were equilibrated for 1 and 18 hrs at room temperature and read in a Synergy^4 plate reader from BioTek (Winooski, Vt.) at λex330-80/λem620-35 and λem665-7.5. At the conclusion of each assay, the HTRF ratio from fluorescence emission values for each well was calculated and % Inhibition determined from averaged controls wells (+/−PI3K enzyme). % Inhibition values for each compound were then plotted against inhibitor concentration to estimate IC50 from log [Inhibitor] vs Response, Variable Slope model in GraphPad Prism from GraphPad Software (San Diego, Calif.).
[Reagent] used in optimized protocol: • [p110α/p85α]=0.5-1.5 nM, [ATP]=50 μM, [di-C8—PIP2]=10 μM • [p110β/p85α]=0.75 nM, [ATP]=50 μM, [di-C8—PIP2]=10 μM • [p120γ]=2-2.5 nM, [ATP]=50 μM, [di-C8—PIP2]=10 μM • (ATP KMapp for both enzymes was estimated to be 40-70 μM)
On the technique in general: TR-FRET usually uses a lanthanide donor and a delayed reading to cut background.

A further assay relates to PI3K. The assay is described as follows: PI3K HCT116 cellular assay (Western blot). As to conditions: Homo sapiens, HCT-116, HCT116 colon cancer cells, 1 hour incubation, read-out: PI3K Inhibition. It counts as cell-based. The method, then:
PI3K HCT116 Cellular Assay
Selected compounds were assayed in HCT116 colon cancer cells. […] Cells were then washed with PBS, lysed and the protein lysates were then recovered and analyzed by Western blot.
Background: A western blot detects proteins with antibodies after separation by electrophoresis.

SMILES strings stand for the structures.

T2 sequence (P48736 whole entry): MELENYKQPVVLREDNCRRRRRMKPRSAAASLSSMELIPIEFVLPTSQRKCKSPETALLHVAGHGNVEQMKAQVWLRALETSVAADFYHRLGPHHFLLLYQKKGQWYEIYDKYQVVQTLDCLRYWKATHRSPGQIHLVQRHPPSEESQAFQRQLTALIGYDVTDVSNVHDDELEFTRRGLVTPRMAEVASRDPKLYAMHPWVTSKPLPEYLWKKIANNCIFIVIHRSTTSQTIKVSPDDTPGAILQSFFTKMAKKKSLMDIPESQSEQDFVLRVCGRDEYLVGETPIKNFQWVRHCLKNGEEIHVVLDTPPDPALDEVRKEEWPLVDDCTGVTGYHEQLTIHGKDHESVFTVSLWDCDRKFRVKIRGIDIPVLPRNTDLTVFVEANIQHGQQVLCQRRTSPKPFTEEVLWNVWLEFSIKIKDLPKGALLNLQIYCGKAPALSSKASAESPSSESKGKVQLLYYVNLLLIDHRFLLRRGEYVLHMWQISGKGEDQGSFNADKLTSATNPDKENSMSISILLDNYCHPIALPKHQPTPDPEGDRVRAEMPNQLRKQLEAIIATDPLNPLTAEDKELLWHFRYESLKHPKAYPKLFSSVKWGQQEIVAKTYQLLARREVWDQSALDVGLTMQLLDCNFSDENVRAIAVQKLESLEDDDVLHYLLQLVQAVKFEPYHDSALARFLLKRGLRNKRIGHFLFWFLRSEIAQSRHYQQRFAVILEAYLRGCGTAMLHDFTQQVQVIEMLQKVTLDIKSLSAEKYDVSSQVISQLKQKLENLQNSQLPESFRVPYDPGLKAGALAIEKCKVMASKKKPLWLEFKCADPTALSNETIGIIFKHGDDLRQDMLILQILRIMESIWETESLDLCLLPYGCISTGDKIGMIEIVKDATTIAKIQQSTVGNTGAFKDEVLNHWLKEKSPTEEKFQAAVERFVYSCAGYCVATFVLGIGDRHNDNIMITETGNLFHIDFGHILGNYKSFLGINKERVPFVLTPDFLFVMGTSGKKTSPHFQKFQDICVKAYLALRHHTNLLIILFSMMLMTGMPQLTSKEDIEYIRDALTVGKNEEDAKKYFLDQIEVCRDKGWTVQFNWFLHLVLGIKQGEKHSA
T1 sequence (P42336 whole entry): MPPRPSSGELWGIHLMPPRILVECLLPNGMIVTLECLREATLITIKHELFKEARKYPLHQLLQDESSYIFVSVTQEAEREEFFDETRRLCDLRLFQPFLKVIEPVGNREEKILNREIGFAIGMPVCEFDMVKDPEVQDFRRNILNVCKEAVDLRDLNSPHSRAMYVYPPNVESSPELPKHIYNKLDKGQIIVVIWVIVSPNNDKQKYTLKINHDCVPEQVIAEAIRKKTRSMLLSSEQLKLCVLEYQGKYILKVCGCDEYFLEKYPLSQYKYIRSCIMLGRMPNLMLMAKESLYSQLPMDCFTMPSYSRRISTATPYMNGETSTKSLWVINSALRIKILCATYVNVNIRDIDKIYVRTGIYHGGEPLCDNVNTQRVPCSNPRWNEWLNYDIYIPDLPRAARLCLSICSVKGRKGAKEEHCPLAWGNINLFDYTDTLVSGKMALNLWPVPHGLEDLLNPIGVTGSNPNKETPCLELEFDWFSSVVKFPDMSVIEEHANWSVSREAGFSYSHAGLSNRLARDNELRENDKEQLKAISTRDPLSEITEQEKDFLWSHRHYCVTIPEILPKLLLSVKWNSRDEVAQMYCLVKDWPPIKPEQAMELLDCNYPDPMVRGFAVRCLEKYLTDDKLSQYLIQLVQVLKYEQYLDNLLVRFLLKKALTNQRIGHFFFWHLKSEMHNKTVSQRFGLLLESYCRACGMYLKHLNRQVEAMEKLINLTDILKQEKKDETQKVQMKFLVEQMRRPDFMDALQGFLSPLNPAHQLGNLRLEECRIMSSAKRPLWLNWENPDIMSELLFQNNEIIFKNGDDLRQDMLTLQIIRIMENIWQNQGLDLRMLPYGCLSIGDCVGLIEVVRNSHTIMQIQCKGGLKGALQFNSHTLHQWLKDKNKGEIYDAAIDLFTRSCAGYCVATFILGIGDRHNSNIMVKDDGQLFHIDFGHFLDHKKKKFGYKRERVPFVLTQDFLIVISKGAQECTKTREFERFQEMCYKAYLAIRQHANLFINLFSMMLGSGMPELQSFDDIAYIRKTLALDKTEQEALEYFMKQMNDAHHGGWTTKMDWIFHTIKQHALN
T1 sequence (P27986 whole entry partner): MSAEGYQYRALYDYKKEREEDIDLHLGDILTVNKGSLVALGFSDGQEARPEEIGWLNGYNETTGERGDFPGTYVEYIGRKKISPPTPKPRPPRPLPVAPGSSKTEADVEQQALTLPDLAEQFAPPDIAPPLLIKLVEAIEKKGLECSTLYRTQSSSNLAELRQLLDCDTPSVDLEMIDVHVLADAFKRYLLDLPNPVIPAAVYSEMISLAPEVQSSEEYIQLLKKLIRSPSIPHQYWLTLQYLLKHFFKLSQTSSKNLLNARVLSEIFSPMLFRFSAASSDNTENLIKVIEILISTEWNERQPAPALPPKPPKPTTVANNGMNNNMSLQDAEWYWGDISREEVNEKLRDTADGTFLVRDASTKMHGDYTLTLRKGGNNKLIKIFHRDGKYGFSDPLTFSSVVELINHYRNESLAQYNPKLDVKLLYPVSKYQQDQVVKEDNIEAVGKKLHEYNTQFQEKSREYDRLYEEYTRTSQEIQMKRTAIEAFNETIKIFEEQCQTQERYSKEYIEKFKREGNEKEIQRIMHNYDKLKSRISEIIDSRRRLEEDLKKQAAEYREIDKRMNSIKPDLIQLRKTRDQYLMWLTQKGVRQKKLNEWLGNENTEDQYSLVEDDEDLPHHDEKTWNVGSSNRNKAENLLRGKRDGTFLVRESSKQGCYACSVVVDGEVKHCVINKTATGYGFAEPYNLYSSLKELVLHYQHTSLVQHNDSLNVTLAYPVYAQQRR

On to `C=CC(=O)NCC(=O)N1CCN(Cc2cc3nc(-c4cccc5[nH]ncc45)nc(N4CCOCC4)c3s2)CC1` [II-a-6, N-(2-(4-((2-(1H-indazol-4-yl)-4-morpholinothieno[3,2-d]pyrimidin-6-yl)methyl)piperazin-1-yl)-2-oxoethyl)acrylamide], for which the IC50 is 100 to 1000 nM at PI3Kα (p110α/p85α) and > 1000 nM at PI3Kγ (p120γ). Besides, the EC50 with PI3K was 2000 to 5000 nM.
The like results for `C=CC(=O)NCCS(=O)(=O)N1CCN(Cc2cc3nc(-c4cccc(O)c4)nc(N4CCOCC4)c3s2)CC1` [II-a-25, N-(2-(4-((2-(3-hydroxyphenyl)-4-morpholinothieno[3,2-d]pyrimidin-6-yl)methyl)piperazin-1-ylsulfonyl)ethyl)acrylamide] were, in that order, 10 to 100 nM, 100 to 1000 nM and 20 to 100 nM.
The like results for `C/C=C/C(=O)CCC(=O)N1CCN(CC#Cc2cc3nc(-c4cccc(O)c4)nc(N4CCOCC4)c3s2)CC1` [II-a-48, (E)-1-(4-(3-(2-(3-hydroxyphenyl)-4-morpholinothieno[3,2-d]pyrimidin-6-yl)prop-2-ynyl)piperazin-1-yl) hept-5-ene-1,4-dione] were, in that order, < 10 nM, > 1000 nM and 20 to 100 nM.
The like results for `C=C(C)C(=O)CCCC(=O)N1CCN(c2ccnc3ccc(/C=C4\SC(Nc5c(Cl)cccc5Cl)=NC4=O)cc23)CC1` [V-3, (Z)-1-(4-(6-((2-(2,6-dichlorophenylamino)-4-oxothiazol-5(4H)-ylidene)methyl)quinolin-4-yl)piperazin-1-yl)-6-methylhept-6-ene-1,5-dione] were, in that order, 100 to 1000 nM, > 1000 nM and 500 to 2000 nM.
For `C=CC(=O)N1CCN(CC#Cc2cc3nc(-c4cccc(O)c4)nc(N4CCOCC4)c3s2)CC1` [II-a-47, 1-(4-(3-(2-(3-hydroxyphenyl)-4-morpholinothieno[3,2-d]pyrimidin-6-yl)prop-2-ynyl)piperazin-1-yl)prop-2-en-1-one], the IC50 is 10 to 100 nM on PI3Kα (p110α/p85α) and > 1000 nM on PI3Kγ (p120γ). In addition, the EC50 in the assay on PI3K lay in the range of 100 to 500 nM.
Taken in the same sequence, the figures for `C=CC(=O)NC1CCC(C(=O)N(C)Cc2cc3nc(-c4cccc(O)c4)nc(N4CCOCC4)c3s2)CC1` (racemic) [II-a-35, (±)-4-acrylamido-N-((2-(3-hydroxyphenyl)-4-morpholinothieno[3,2-d]pyrimidin-6-yl)methyl)-N-methylcyclohexanecarboxamide] were 100 to 1000 nM, 100 to 1000 nM and 100 to 500 nM.
The like results for `C=CS(=O)(=O)N(C)Cc1cc2nc(-c3cccc(O)c3)nc(N3CCOCC3)c2s1` [II-a-29, N-((2-(3-hydroxyphenyl)-4-morpholinothieno[3,2-d]pyrimidin-6-yl)methyl)-N-methylethenesulfonamide] were, in that order, 10 to 100 nM, 100 to 1000 nM and 100 to 500 nM.
Turning to `O=C1NC(=O)/C(=C/c2ccc3nccc(-c4ccncc4)c3c2)S1` [GSK-615, reference compound], the EC50 in the assay on PI3K is < 20 nM.
On to `C=CC(=O)NCC(=O)N1CCN(Cc2cc3nc(-c4cccc(O)c4)nc(N4CCOCC4)c3s2)CC1` [II-a-38, N-(2-(4-((2-(3-hydroxyphenyl)-4-morpholinothieno[3,2-d]pyrimidin-6-yl)methyl)piperazin-1-yl)-2-oxoethyl)acrylamide], for which the results for the IC50 at PI3Kα (p110α/p85α) and at PI3Kγ (p120γ) were 10 to 100 nM and > 1000 nM, respectively.
Taken in the same sequence, the figures for `CCCC(=O)CCC(=O)NCC(=O)N1CCN(Cc2cc3nc(-c4cccc5[nH]ncc45)nc(N4CCOCC4)c3s2)CC1` [II^R-a-16] were 100 to 1000 nM and > 1000 nM.
The like results for `CC(C)(C)C#CC(=O)CC[C@H](NC(=O)OC(C)(C)C)C(=O)N1CCN(Cc2cc3nc(-c4cccc5[nH]ncc45)nc(N4CCOCC4)c3s2)CC1` [II-a-51, (S)-tert-butyl 1-(4-((2-(1H-indazol-4-yl)-4-morpholinothieno[3,2-d]pyrimidin-6-yl)methyl)piperazin-1-yl)-8,8-dimethyl-1,5-dioxonon-6-yn-2-ylcarbamate] were, in that order, 100 to 1000 nM and > 1000 nM.
Taken in the same sequence, the figures for `C/C=C/C(=O)CCC(=O)N1CCN(c2ccnc3ccc(/C=C4\SC(=O)NC4=O)cc23)CC1` [V-2, (Z)-5-((4-(4-((E)-4-oxohept-5-enoyl)piperazin-1-yl)quinolin-6-yl)methylene)thiazolidine-2,4-dione] were 100 to 1000 nM and > 1000 nM.
For `O=C(/C=C/CNC(=O)CCCC(=O)NCCCOCCOCCOCCCNC(=O)CCCC[C@@H]1SC[C@@H]2NC(=O)N[C@@H]21)CCC(=O)N1CCN(Cc2cc3nc(-c4cccc5[nH]ncc45)nc(N4CCOCC4)c3s2)CC1` [XIV-a-2, N1-((E)-7-(4-((2-(1H-indazol-4-yl)-4-morpholinothieno[3,2-d]pyrimidin-6-yl)methyl)piperazin-1-yl)-4,7-dioxohept-2-enyl)-N5-(15-oxo-19-((3aS,4S,6aR)-2-oxohexahydro-1H-thieno[3,4-d]imidazol-4-yl)-4,7,10-trioxa-14-azanonadecyl)glutaramide], the IC50 on PI3Kα (p110α/p85α) and at PI3Kγ (p120γ) was > 1000 nM in each case.
In the case of `C=CC(=O)N1CCN(c2ccc(-c3cc4nc(-c5cccc(O)c5)nc(N5CCOCC5)c4s3)cc2)CC1` [II-a-58, 1-(4-(4-(2-(3-hydroxyphenyl)-4-morpholinothieno[3,2-d]pyrimidin-6-yl)phenyl)piperazin-1-yl)prop-2-en-1-one], the IC50 on PI3Kα (p110α/p85α) is 10 to 100 nM; at PI3Kγ (p120γ), > 1000 nM.
The like results for `C=CC(=O)n1cc(-c2ccc3c(c2)N(c2nc4c(s2)C(=O)NC(C)(C)C4)CCO3)cn1` [VI-1, 2-(6-(1-acryloyl-1H-pyrazol-4-yl)-2H-benzo[b][1,4]oxazin-4(3H)-yl)-6,6-dimethyl-6,7-dihydrothiazolo[5,4-c]pyridin-4(5H)-one] were, in that order, > 1000 nM and 100 to 1000 nM.
Taken in the same sequence, the figures for `CC(C)(C)/C=C\C(=O)CC[C@H](NC(=O)OC(C)(C)C)C(=O)N1CCN(Cc2cc3nc(-c4cccc5[nH]ncc45)nc(N4CCOCC4)c3s2)CC1` [II-a-52, (S)-tert-butyl 1-(4-((2-(1H-indazol-4-yl)-4-morpholinothieno[3,2-d]pyrimidin-6-yl)methyl)piperazin-1-yl)-8,8-dimethyl-1,5-dioxonon-6-en-2-ylcarbamate] were 100 to 1000 nM and > 1000 nM.
The like results for `C=CC(=O)N1CCN(C(=O)C2CCN(Cc3cc4nc(-c5cccc6[nH]ncc56)nc(N5CCOCC5)c4s3)CC2)CC1` [II-a-31, 1-(4-(1-((2-(1H-indazol-4-yl)-4-morpholinothieno[3,2-d]pyrimidin-6-yl)methyl)piperidine-4-carbonyl)piperazin-1-yl)prop-2-en-1-one] were, in that order, 100 to 1000 nM and > 1000 nM.
Regarding `C=CC(=O)NCCN1CCN(Cc2cc3nc(-c4cccc5[nH]ncc45)nc(N4CCOCC4)c3s2)CC1` [II-a-59], the IC50 on PI3Kα (p110α/p85α) and at PI3Kγ (p120γ) was > 1000 nM each time.
On to `C=CC(=O)N[C@H]1CC[C@H](C(=O)N(C)Cc2cc3nc(-c4cccc(O)c4)nc(N4CCOCC4)c3s2)CC1` [II-a-42], for which the IC50 on PI3Kα (p110α/p85α) and on PI3Kγ (p120γ) was > 1000 nM in each case.
For the molecule `C/C=C/C(=O)CCC(=O)NCCS(=O)(=O)N1CCN(Cc2cc3nc(-c4cccc5[nH]ncc45)nc(N4CCOCC4)c3s2)CC1` [II-a-23, (E)-N-(2-(4-((2-(1H-indazol-4-yl)-4-morpholinothieno[3,2-d]pyrimidin-6-yl)methyl)piperazin-1-ylsulfonyl)ethyl)-4-oxohept-5-enamide], the IC50 at PI3Kα (p110α/p85α) is 100 to 1000 nM; on PI3Kγ (p120γ), > 1000 nM.
